Columns and labels:
Assay in all cases: relative viability (nuclei count vs DMSO), 5 days (fraction); higher = more cells survive
[1] = compound: C[C@]1(O)C[C@@H](c2nc(-c3ccc4ccc(-c5ccccc5)nc4c3)c3c(N)nccn32)C1 [Linsitinib] + COc1cc2c(Oc3ccc(NC(=O)C4(C(=O)Nc5ccc(F)cc5)CC4)cc3F)ccnc2cc1OCCCN1CCOCC1 [Foretinib] (partner 0.25 µM)
Outline: (§1)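 The day after seeding in 1536-well plates, lung cancer cell lines were treated by pin tool with a single drug, or with a fixed anchor-drug dose together with five library-drug doses (not always all listed) in √10 steps. After 5 days, a combined fix-and-stain solution (final 0.05% Triton X-100, 1% formaldehyde, 1 ug/ml Hoechst) was added. Nuclei counted on 4× images gave relative viability as treated counts over vehicle counts, reported as the median of duplicate plates.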

[2] = compound: C[C@]1(O)C[C@@H](c2nc(-c3ccc4ccc(-c5ccccc5)nc4c3)c3c(N)nccn32)C1 [Linsitinib] + C[C@@H](Oc1cc(-c2cnn(C3CCNCC3)c2)cnc1N)c1c(Cl)ccc(F)c1Cl [Crizotinib] (partner 1 µM)
Outline: as §1

[3] = compound: C[C@]1(O)C[C@@H](c2nc(-c3ccc4ccc(-c5ccccc5)nc4c3)c3c(N)nccn32)C1 [Linsitinib] + O=C(c1cc(Cc2n[nH]c(=O)c3ccccc23)ccc1F)N1CCN(C(=O)C2CC2)CC1 [Olaparib] (partner 8 µM)
Outline: as §1

[4] = compound: Cc1ccc(C(=O)N(CCCN)[C@@H](c2nc3cc(Cl)ccc3c(=O)n2Cc2ccccc2)C(C)C)cc1 [Ispinesib] + Cc1nc(NC(=O)N2CCC[C@H]2C(N)=O)sc1-c1ccnc(C(C)(C)C(F)(F)F)c1 [Alpelisib] (partner 2 µM)
Outline: as §1

| Cell Line | relative viability ([1]; first compound 0.01 µM) | relative viability ([1]; first compound 0.03162 µM) | relative viability ([1]; first compound 0.1 µM) | relative viability ([1]; first compound 0.3162 µM) | relative viability ([1]; first compound 1 µM) | relative viability ([2]; first compound 0.01 µM) | relative viability ([2]; first compound 0.03162 µM) | relative viability ([2]; first compound 0.1 µM) | relative viability ([2]; first compound 0.3162 µM) | relative viability ([2]; first compound 1 µM) | relative viability ([3]; first compound 0.01 µM) | relative viability ([3]; first compound 0.03162 µM) | relative viability ([3]; first compound 0.1 µM) | relative viability ([3]; first compound 0.3162 µM) | relative viability ([3]; first compound 1 µM) | relative viability ([4]; first compound 0.001 µM) | relative viability ([4]; first compound 0.003162 µM) | relative viability ([4]; first compound 0.01 µM) | relative viability ([4]; first compound 0.03162 µM) | relative viability ([4]; first compound 0.1 µM) |
| --- | --- | --- | --- | --- | --- | --- | --- | --- | --- | --- | --- | --- | --- | --- | --- | --- | --- | --- | --- | --- |
| H3255 | 0.796 | 0.907 | 0.944 | 0.682 | 0.976 | 0.84 | 0.817 | 0.95 | 0.773 | 0.813 | 0.6 | 0.604 | 0.564 | 0.456 | 0.5 | 0.677 | 0.8 | 0.736 | 0.492 | 0.33 |
| HARA | 0.91 | 0.938 | 0.758 |  | 0.932 | 1.03 | 1.24 | 1.21 | 0.696 | 1.14 | 0.631 | 0.396 | 0.69 |  | 0.935 | 0.865 | 0.806 | 0.914 | 0.674 | 0.371 |
| HCC-15 | 1.08 | 1.01 | 1.04 |  | 0.809 | 0.833 | 0.724 | 0.837 | 0.52 | 0.696 | 0.697 | 0.938 | 0.759 | 0.364 | 0.655 | 0.92 | 0.955 | 1.06 | 0.83 | 0.358 |
| HCC-44 |  |  |  |  |  | 0.704 | 0.78 | 0.739 | 0.56 | 0.612 | 1.01 | 0.924 | 1 | 0.858 | 0.916 | 0.805 | 0.878 | 1.11 | 0.822 | 0.234 |
| HCC-78 | 0.545 | 0.567 | 0.471 | 0.44 | 0.39 | 0.298 | 0.356 | 0.278 | 0.338 | 0.265 |  | 1 | 0.706 | 0.916 | 0.506 | 0.358 | 0.393 | 0.38 |  | 0.268 |
| HCC-366 | 0.95 | 0.996 | 0.907 | 0.932 | 0.956 | 0.542 | 0.487 | 0.583 | 0.433 | 0.429 | 0.354 | 0.219 | 0.481 | 0.332 | 0.265 | 0.733 | 0.393 | 0.535 | 0.47 | 0.135 |
| HCC-827 | 1.07 | 1.1 | 1.02 |  | 0.966 | 0.997 | 1.03 | 0.932 |  | 0.948 | 0.759 | 0.377 | 0.606 |  | 0.625 | 0.91 | 1 | 0.981 | 0.922 | 0.814 |
| HOP-62 | 1.09 | 1.05 | 1.06 |  | 1.16 | 0.959 | 1.02 | 0.798 |  | 0.954 |  | 0.247 | 0.524 | 0.244 | 0.393 | 0.656 | 0.957 | 0.908 | 1.17 | 0.981 |
| NCI-H522 |  |  |  |  |  |  |  |  |  |  | 0.895 | 0.588 | 0.554 | 0.512 | 0.57 |  |  |  |  |  |
| NCI-H1395 | 0.98 | 1.01 | 1 | 0.957 | 0.998 |  |  |  |  |  | 0.451 |  | 0.441 | 0.454 | 0.444 | 1.14 | 0.945 | 0.87 | 0.398 | 0.493 |
| NCI-H1563 | 0.865 | 0.984 | 0.98 | 0.98 | 0.903 | 0.886 | 0.847 | 0.852 | 0.818 | 0.955 |  |  |  |  |  | 0.972 | 0.949 | 0.944 | 0.838 | 0.705 |
| NCI-H1623 | 0.871 | 0.913 | 0.85 |  | 0.671 |  |  |  |  |  |  |  |  |  |  |  |  |  |  |  |
| NCI-H1648 |  |  |  |  |  |  |  |  |  |  | 0.766 | 0.941 | 1.31 | 0.377 | 0.399 |  |  |  |  |  |
| NCI-H1650 | 1.2 | 0.902 | 1.12 | 0.697 | 1.03 | 1.03 | 1.08 | 0.963 | 0.915 | 0.799 | 0.871 | 0.954 | 0.883 | 0.735 | 0.523 |  |  |  |  |  |
| NCI-H1792 |  |  |  |  |  | 1.01 | 0.96 | 0.951 | 0.764 | 0.746 | 0.341 | 0.348 | 0.373 | 0.298 | 0.172 | 0.838 | 0.68 | 0.692 | 0.393 | 0.44 |
| NCI-H1793 | 0.629 | 0.765 | 0.643 | 0.602 | 0.681 |  |  |  |  |  | 0.772 | 0.841 | 0.628 | 0.666 | 0.697 | 0.677 | 0.713 | 1.17 | 0.783 | 0.328 |
| NCI-H2342 | 1.06 | 1.05 | 1.06 | 1.01 | 0.959 |  |  |  |  |  | 0.532 | 0.565 | 0.481 | 0.438 | 0.407 |  |  |  |  |  |
| SW 900 | 0.894 | 1.07 | 0.881 | 0.857 | 0.503 |  |  |  |  |  | 0.685 | 0.872 | 0.821 | 0.793 | 0.667 |  |  |  |  |  |

Source: the supplement of paper PMC10307832
